Entries after “also recorded” stand apart in the source; their conditions may differ. No end group written: not given here.
Tests used:
[1] = tested on: Strain AH429 (Agr-I reporter); assay: AIP inhibition assay, Agr-I reporter (RNAIII promoter driving GFP); type: cell-based, S. aureus; conditions: sample diluted 20-fold into AH429 culture; GFP compared to TSB control
Procedure: (§1) AIP inhibition assays. For monitoring inhibition of the Agr system, an overnight culture of the appropriate reporter strain was inoculated into TSB with chloramphenicol and grown to an optical density of 0.05 (0.25 for AH431) at 600 nm. In triplicate, 475 μl of reporter culture was aliquoted into test tubes (13×100 mm) and 25 μl of spent media or intein-generated AIP was added to each tube. As controls, separate tubes were prepared with the addition of either 25 μl of TSB or chitin elution buffer. The tubes were shaken at 250 rpm at 37° C. and assayed at the following times unless otherwise indicated: AH429, 12 hrs; AH430, 3 hrs; AH431, 4 hrs. Both cell density (optical density, 595 nm) and GFP fluorescence (excitation at 485 nm, emission at 535 nm) was measured in a Tecan GENios microtiter plate reader (Research Triangle Park, N.C.) by removing 100 μl from each tube and assaying in a microtiter plate (Corning 3606 plates). Fluorescence is reported as an average of the three samples. Control AIP samples were prepared from the appropriate S. aureus producing strains. Each strain was grown in TSB until an optical density at 600 nm of ˜2.0-2.5, the cells were pelleted, and the supernatant was filtered through a 0.2 micro syringe filter. The filtered supernatants were stored at 4° C. and used within 48 hrs.
(§2) Agr reporter strains. […]

[2] = tested on: Strain AH431 (Agr-III reporter); assay: AIP inhibition assay, Agr-III reporter (RNAIII promoter driving GFP); type: cell-based, S. aureus; conditions: sample diluted 20-fold into AH431 culture
Procedure: as §1, §2

[3] = tested on: S. aureus Agr-II (AH430) reporter strain; assay: AIP activation assay, Agr-II reporter; type: cell-based; conditions: 50 nM iAIP, TSB with 0.2% glucose, AH430, GFP
Procedure: (§3) AIP activation assays. Overnight cultures of S. aureus reporter strains were grown in TSB and sub-cultured 1:50 into TSB+0.2% glucose supplemented with indicated AIP (final volume […] concentration 50 nM). Cultures were grown in test tubes (13×100 mm) at 37° C. shaking at 250 rpm. Cell density and fluorescence was monitored using a Tecan GENios microtiter plate reader at 4, 6, 8, and 10 hours after inoculation.
(§4) In published reports, the addition of AIP samples results in a significant increase in the RNAIII levels (Ji et al., 1997). The inventors reasoned that the S. aureus media conditions are limiting the Agr response, allowing detection of AIP activation. Glucose is a common media component, and growth on glucose is known to repress RNAIII transcription (Regassa et al., 1992). When the reporter strains were grown in TSB with 0.2% glucose, the inventors observed an approximately 70% drop in GFP expression (data not shown). The addition of AIP to the glucose treated strains restores the maximal levels of RNAIII, creating a simple test for AIP activation.

AH430 (Agr-II reporter) = type: cell-based, S. aureus
Procedure: as §1
The intein fusions were kept on resin in the presence of buffer with TCEP, a non-thiol reducing agent, added to maintain DnaB activity and keep the AIP cysteine reduced. Following incubation, the resin buffer was eluted and tested for biological activity. The bioassay is based on the observation that there are three inhibition classes among S. aureus Agr systems (FIG. 1). An S. aureus Agr-II reporter strain, AH430, has a plasmid with the RNAIII transcript promoter driving GFP expression.
Agr reporter strains. To test the iAIPs, reporter strains had to be developed for each of the Agr-I, Agr-II, and Agr-III systems. […]

[4] = tested on: S. aureus Agr-I (AH462) reporter strain; assay: AIP activation assay, Agr-I reporter; type: cell-based; conditions: 50 nM iAIP, TSB with 0.2% glucose, AH462, GFP
Procedure: as §3, §4

Substance	inhibition of quorum-sensing (GFP fluorescence) in Agr-I reporter strain [1]	inhibition of quorum-sensing (GFP fluorescence) in Agr-III reporter strain [2]	-fold activation over the TSB control, Agr-II reporter [3]	inhibition of quorum-sensing (GFP fluorescence) in Agr-II reporter strain (AH430 (Agr-II reporter); sample diluted 20-fold into AH430 culture, untreated sample)	Agr-II inhibition after hydroxylamine treatment of the sample (AH430 (Agr-II reporter); sample treated with hydroxylamine, opening the thiolactone ring, AH430)	Agr-II inhibition after base treatment of the sample (AH430 (Agr-II reporter); sample treated with sodium hydroxide base to open the thiolactone ring, neutralized with acid, AH430)	-fold activation over the TSB control, Agr-I reporter [4]
iAIP-II: intein-generated S. aureus AIP-II thiolactone peptide (GVNACSSLF), N-terminal methionine completely removed (not fully specified (bridges); also: thiolactone, places not given here)	inhibited quorum-sensing	inhibited quorum-sensing	3.8 -fold				
iAIP-I: intein-generated S. aureus AIP-I thiolactone peptide with an additional N-terminal methionine (MYSTCDFIM) (not fully specified (bridges); also: thiolactone, places not given here)	did not inhibit quorum-sensing	inhibited		inhibited the quorum-sensing response in strain AH430 in a dose-dependent manner; also recorded: did inhibit activity	neither sample inhibited the Agr response	neither sample inhibited the Agr response	3.0 -fold

Reference: patent US20100143972A1, “Method of Making Cyclic Polypeptides with Inteins” (priority 2006, published 2010)
